Results as given in US9242984B2, “Pyrazolyl derivatives as Syk inhibitors” (Merck Sharp & Dohme Corp., priority 2012, dated 2016).

The compounds below were run against T1, recombinant human Syk (GST-hSyk fusion protein) (Homo sapiens, UniProt P43405) (assay: Homogeneous Time-Resolved Fluorescence (HTRF) assay for the recombinant human Syk enzyme). Conditions: 10-dose titration, 25 μM ATP; read-out: rhSYK IC50.
T1 construct: purchased Carna Biosciences 08-176
Assay type: biochemical
How it was run: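 IC50 came from a four-parameter fit over ten doses, 10 μM to 0.508 nM, with HTRF read-out (Eu-anti-pTyr antibody, SA-APC, EDTA stop, 30 min). The enzyme, 5 pM GST-hSyk, met compound for 10 min, then phosphorylated 250 nM biotin-peptide with 25 μM ATP and 5 mM Mg for 45 min at room temperature, pH 7.5.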

| Compound | IC50 [nM] |
| --- | --- |
| Cc1cc(Nc2nccc(C(F)F)n2)cc(-c2cnn(C3CCC(C)(C)C(O)C3O)c2)c1 (centres unmarked) [Example 22.7, 6-[4-(3-{[4-(difluoromethyl)pyrimidin-2-yl]amino}-5-methylphenyl)-1H-pyrazol-1-yl]-3,3-dimethylcyclohexane-1,2-diol] | 2.6 |
| Cc1cc(Nc2nccc(C(F)F)n2)cc(-c2cnn(CC(C)(O)C(F)(F)F)c2)c1 (single isomer, unassigned) [Example 24.1, (S or R)-3-(4-(3-((4-(difluoromethyl)pyrimidin-2-yl)amino)-5-methylphenyl)-1H-pyrazol-1-yl)-1,1,1-trifluoro-2-methylpropan-2-ol] | 2.6 |
| Cc1cc(Nc2nccc(C(F)F)n2)cc(-c2cnn(C3CC(C)(C)CC(C)(O)C3O)c2)c1 (centres unmarked) [Example 22.9, 3-[4-(3-{[4-(difluoromethyl)pyrimidin-2-yl]amino}-5-methylphenyl)-1H-pyrazol-1-yl]-1,5,5-trimethylcyclohexane-1,2-diol] | 1.1 |
| Cc1cc(Nc2nccc(C(F)F)n2)cc(-c2cnn(CC3(O)CCC3)c2)c1 [Example 29.1, 1-((4-(3-((4-(Difluoromethyl)pyrimidin-2-yl)amino)-5-methylphenyl)-1H-pyrazol-1-yl)methyl)cyclobutanol] | 2 |

Same assay, conditions: IC50 class; 10-dose titration, 25 μM ATP; read-out: rhSYK Activity

| Compound | IC50 [nM] |
| --- | --- |
| CCOC(=O)CCn1cc(-c2cccc(Nc3cc(C(F)(F)F)ccn3)n2)cn1 [Example 1.24, ethyl 3-[4-(6-{[4-(trifluoromethyl)pyridin-2-yl]amino}pyridin-2-yl)-1H-pyrazol-1-yl]propanoate] | 100 to 1000 |
| Cc1ccnc(Nc2cc(C)nc(-c3cnn(C[C@@H](O)C(=O)O)c3)n2)c1 [Example 11.19, (2R)-2-hydroxy-3-(4-{4-methyl-6-[(4-methyl-pyridin-2-yl)amino]-pyrimidin-2-yl}-1H-pyrazol-1-yl)propanoic acid] | 100 to 1000 |
| Cc1cc(Nc2nccc(C(F)(F)F)n2)cc(-c2cnn(C3CCC(C(=O)OC(C)(C)C)CC3)c2)c1 (centres unmarked) [Example 1.4, tert-butyl 4-[4-(3-methyl-5-{[4-(trifluoromethyl)-pyrimidin-2-yl]amino}-phenyl)-1H-pyrazol-1-yl]-cyclohexanecarboxylate] | 1000 to 10000 |
| CCOC(=O)CCc1cnn(-c2cc(C)cc(Nc3nccc(C)n3)c2)c1 [Example 19.6, Ethyl 3-(1-{3-methyl-5-[(4-methyl-pyrimidin-2-yl)amino]-phenyl}-1H-pyrazol-4-yl)propanoate] | 100 to 1000 |
| COc1ccc(OCC(O)Cn2cc(-c3cc(C)cc(Nc4nccc(C(F)(F)F)n4)c3)cn2)cc1 (centres unmarked) [Example 5.11, 1-(4-methoxy-phenoxy)-3-[4-(3-methyl-5-{[4-(trifluoromethyl)-pyrimidin-2-yl]amino}phenyl)-1H-pyrazol-1-yl]propan-2-ol] | 100 to 1000 |
| CCOC(=O)CCn1cc(-c2cccc(Nc3cc(C)ccn3)n2)cn1 [Example 1.23] | 100 to 1000 |
| Cc1cc(Nc2cc(C)c(Cl)cn2)nc(-n2cc(CCC(=O)O)cn2)c1 [Example 18.4, 3-(1-{6-[(5-chloro-4-methylpyridin-2-yl)amino]-4-methylpyridin-2-yl}-1H-pyrazol-4-yl)propanoic acid] | 100 to 1000 |
| Cc1cc(Nc2nccc(C(F)F)n2)cc(-c2cnn(CCNC(=O)OCCF)c2)c1 [Example 27.18, 2-fluoroethyl {2-[4-(3-{[4-(difluoromethyl)pyrimidin-2-yl]amino}-5-methylphenyl)-1H-pyrazol-1-yl]ethyl}carbamate] | ≤ 100 |
| Cc1cc(Nc2cc(C(F)(F)F)ccn2)nc(-c2cnn(C(=O)OC(C)(C)C)c2)c1 [Example 1.11, tert-butyl 4-(4-methyl-6-{[4-(trifluoromethyl)-pyridin-2-yl]amino}-pyridin-2-yl)-1H-pyrazole-1-carboxylate] | ≤ 100 |
| Cc1cc(Nc2nccc(C(F)F)n2)cc(-c2cnn(C[C@@H]3CNCCO3)c2)c1 [Example 2.83, 4-(difluoromethyl)-N-(3-methyl-5-{1-[(2S)-morpholin-2-ylmethyl]-1H-pyrazol-4-yl}phenyl)pyrimidin-2-amine] | ≤ 100 |
| 5-{[4-(3-{[4-(1,1-difluoromethyl)pyrimidin-2-yl]amino}-5-methylphenyl)-1H-pyrazol-1-yl]methyl}-4-methyl-1,3-oxazolidin-2-one [Example 23.11] | ≤ 100 |
| Cc1cc(Nc2ncccn2)cc(-c2cnn(CC3CNC(=O)O3)c2)c1 (centres unmarked) [Example 3.116, 5-({4-[3-methyl-5-(pyrimidin-2-ylamino)phenyl]-1H-pyrazol-1-yl}methyl)-1,3-oxazolidin-2-one] | ≤ 100 |
| Cc1cc(Nc2nccc(C(F)F)n2)cc(-c2cnn(CC3(C)CNC(=O)C3)c2)c1 (centres unmarked) [Example 2.77, 4-{[4-(3-{[4-(difluoromethyl)pyrimidin-2-yl]amino}-5-methylphenyl)-1H-pyrazol-1-yl]methyl}-4-methylpyrrolidin-2-one] | ≤ 100 |

Further lines, results first:

| IC50 [nM] | Compound |
| --- | --- |
| ≤ 100 | Cc1cc(Nc2nccc(C(F)F)n2)cc(-c2cnn(CC3CNC(=O)O3)c2)c1 (centres unmarked) [Example 2.63, 5-{[4-(3-{[4-(difluoromethyl)pyrimidin-2-yl]amino}-5-methylphenyl)-1H-pyrazol-1-yl]methyl}-1,3-oxazolidin-2-one] |
| ≤ 100 | Cc1cc(Nc2nccc(C(F)F)n2)cc(-c2cnn(C(C[C@H](C)O)[C@H](C)O)c2)c1 (stereo in doubt) [Example 2.55, 3-[4-(3-{[4-(difluoromethyl)pyrimidin-2-yl]amino}-5-methylphenyl)-1H-pyrazol-1-yl]hexane-2,5-diol] |
| ≤ 100 | Cc1cc(Nc2nccc(C(F)(F)F)n2)cc(-n2cc(C(C)(O)c3ccc(C(=O)O)cc3)cn2)c1 (single isomer, unassigned) [Example 19.7, 4-{1-hydroxy-1-[1-(3-methyl-5-{[4-(trifluoromethyl)pyrimidin-2-yl]amino}phenyl)-1H-pyrazol-4-yl]ethyl}benzoic acid] |
| ≤ 100 | Cc1cc(Nc2nccc(C(F)(F)F)n2)cc(-c2cnn(CC3OC(=O)NC3C)c2)c1 (centres unmarked) [Example 3.120, 4-methyl-5-{[4-(3-methyl-5-{[4-(trifluoromethyl)pyrimidin-2-yl]amino}phenyl)-1H-pyrazol-1-yl]methyl}-1,3-oxazolidin-2-one] |
| ≤ 100 | Cc1cc(Nc2nccc(C(F)F)n2)cc(-c2cnn(C3CCC(C)(C)C(O)C3O)c2)c1 (centres unmarked) [Example 22.7, 6-[4-(3-{[4-(difluoromethyl)pyrimidin-2-yl]amino}-5-methylphenyl)-1H-pyrazol-1-yl]-3,3-dimethylcyclohexane-1,2-diol] |
| ≤ 100 | Cc1cc(Nc2nccc(C(F)(F)F)n2)cc(-c2cnn(CC(C)(O)CO)c2)c1 (single isomer, unassigned) [Example 21.2, 2-Methyl-3-(4-(3-methyl-5-((4-(trifluoromethyl)pyrimidin-2-yl)amino)phenyl)-1H-pyrazol-1-yl)propane-1,2-diol] |
| ≤ 100 | Cc1cc(Nc2nccc(C(C)(C)C)n2)cc(-c2cnn(C[C@H](O)C(N)=O)c2)c1 [Example 6.7, (2S)-3-(4-{3-[(4-tert-butyl-pyrimidin-2-yl)amino]-5-methylphenyl}-1H-pyrazol-1-yl)-2-hydroxy-propanamide] |
| ≤ 100 | Cc1cc(Nc2nccc(C(F)(F)F)n2)cc(-c2cnn(CC3(O)CCOC(C)(C)C3)c2)c1 (centres unmarked) [Example 12.10, 2,2-dimethyl-4-{[4-(3-methyl-5-{[4-(trifluoro-methyl)pyrimidin-2-yl]amino}phenyl)-1H-pyrazol-1-yl]methyl}-tetrahydro-2H-pyran-4-ol] |
| ≤ 100 | Cc1cc(Nc2nccc(C)n2)cc(-c2cnn(CCC(=O)O)c2)c1 [Example 2.44, 3-(4-{3-methyl-5-[(4-methylpyrimidin-2-yl)amino]phenyl}-1H-pyrazol-1-yl)propanoic acid] |
| ≤ 100 | Cc1cc(Nc2cc(C(F)(F)F)ccn2)nc(-c2cnn(C3CCC(C(N)=O)c4ccccc43)c2)c1 (centres unmarked) [Example 6.14, 4-[4-(4-methyl-6-{[4-(trifluoro-methyl)-pyridin-2-yl]amino}-pyridin-2-yl)-1H-pyrazol-1-yl]-1,2,3,4-tetrahydro-naphthalene-1-carboxamide] |
| ≤ 100 | Cc1cc(Nc2nccc(C(F)(F)F)n2)cc(-c2cnn(C3CCC(C(=O)O)CC3O)c2)c1 (centres unmarked) [Example 5.38, 3-hydroxy-4-[4-(3-methyl-5-{[4-(trifluoromethyl)pyrimidin-2-yl]amino}phenyl)-1H-pyrazol-1-yl]cyclohexanecarboxylic acid] |
| ≤ 100 | Cc1cc(Nc2nccc(C(F)F)n2)cc(-c2cnn(CC(C)(O)C(F)(F)F)c2)c1 (single isomer, unassigned) [Example 24.1, (S or R)-3-(4-(3-((4-(difluoromethyl)pyrimidin-2-yl)amino)-5-methylphenyl)-1H-pyrazol-1-yl)-1,1,1-trifluoro-2-methylpropan-2-ol] |
| ≤ 100 | Cc1cc(Nc2ncc(F)c(C(F)F)n2)cc(-c2cnn(CC(C)(O)CO)c2)c1 (single isomer, unassigned) [Example 25.10, 3-[4-(3-{[4-(difluoromethyl)-5-fluoropyrimidin-2-yl]amino}-5-methylphenyl)-1H-pyrazol-1-yl]-2-methylpropane-1,2-diol] |
| ≤ 100 | Cc1cc(Nc2nccc(C(F)F)n2)cc(-c2cnn(Cc3cnc(C)[nH]3)c2)c1 [Example 3.108, 4-(difluoromethyl)-N-(3-methyl-5-{1-[(2-methyl-1H-imidazol-5-yl)methyl]-1H-pyrazol-4-yl}phenyl)pyrimidin-2-amine] |
| ≤ 100 | Cc1cc(Nc2cc(C(F)F)ccn2)nc(-c2cnn(C(C)C3CNC(=O)C3)c2)c1 (centres unmarked) [Example 1.63, 4-{1-[4-(6-{[4-(difluoromethyl)pyridin-2-yl]amino}-4-methylpyridin-2-yl)-1H-pyrazol-1-yl]ethyl}pyrrolidin-2-one] |
| ≤ 100 | Cc1cc(Nc2nccc(C(F)F)n2)cc(-c2cnn(C3CC(C)(C)CC(C)(O)C3O)c2)c1 (centres unmarked) [Example 22.9, 3-[4-(3-{[4-(difluoromethyl)pyrimidin-2-yl]amino}-5-methylphenyl)-1H-pyrazol-1-yl]-1,5,5-trimethylcyclohexane-1,2-diol] |
| ≤ 100 | Cc1cc(Nc2nccc(C(F)F)n2)cc(-c2cnn(CC3OC(=O)NC3CO)c2)c1 (single isomer, unassigned) [Example 33.4, 5-{[4-(3-{[4-(difluoromethyl)pyrimidin-2-yl]amino}-5-methylphenyl)-1H-pyrazol-1-yl]methyl}-4-(hydroxymethyl)-1,3-oxazolidin-2-one] |
| ≤ 100 | Cc1cc(Nc2nccc(C(F)(F)F)n2)cc(-c2cnn(CC(O)C(F)(F)F)c2)c1 (single isomer, unassigned) [Example 3.45, 1,1,1-trifluoro-3-[4-(3-methyl-5-{[4-(trifluoromethyl)pyrimidin-2-yl]amino}phenyl)-1H-pyrazol-1-yl]propan-2-ol] |
